Measured values published in the NIST ThermoML archive (doi:10.1016/j.jct.2004.12.014).

What was measured:
[1] = excess molar enthalpy (molar enthalpy of mixing); xn = mol fraction of the nth substance listed; conditions: 318.15 K, 101 kPa, Liquid
[2] = xn = mol fraction of the nth substance listed; conditions: 318.15 K, 101 kPa, Liquid

CCCCCCCCCCCCCCCCC [heptadecane] + CCCCOC(=O)CC
Conditions	excess molar enthalpy [kcal/mol]	excess molar volume [m3/mol]
[1], x2 = 0.0939	0.101	–
[1], x2 = 0.1935	0.175	–
[1], x2 = 0.2953	0.241	–
[1], x2 = 0.3647	0.278	–
[1], x2 = 0.4302	0.3	–
[1], x2 = 0.4836	0.311	–
[1], x2 = 0.5295	0.314	–
[1], x2 = 0.5642	0.313	–
[1], x2 = 0.5727	0.312	–
[1], x2 = 0.5964	0.31	–
[1], x2 = 0.6386	0.298	–
[1], x2 = 0.6808	0.284	–
[1], x2 = 0.7248	0.264	–
[1], x2 = 0.7703	0.236	–
[1], x2 = 0.8172	0.202	–
[1], x2 = 0.8639	0.164	–
[1], x2 = 0.911	0.116	–
[1], x2 = 0.9568	0.0625	–
[2], x2 = 0.1135	–	3.06e-07
[2], x2 = 0.2186	–	5.48e-07
[2], x2 = 0.3079	–	7.39e-07
[2], x2 = 0.3903	–	8.52e-07
[2], x2 = 0.4652	–	8.98e-07
[2], x2 = 0.5331	–	9.21e-07
[2], x2 = 0.5915	–	9.16e-07
[2], x2 = 0.6482	–	8.91e-07
[2], x2 = 0.7001	–	8.35e-07
[2], x2 = 0.7497	–	7.85e-07
[2], x2 = 0.7938	–	6.9e-07
[2], x2 = 0.8335	–	6.09e-07
[2], x2 = 0.8704	–	5.1e-07
[2], x2 = 0.907	–	4.01e-07
[2], x2 = 0.9407	–	2.87e-07
[2], x2 = 0.9701	–	1.43e-07

CCCCCCCCCCCCCCCCC [heptadecane] + CCCOC(=O)CC
Conditions	excess molar enthalpy [kcal/mol]	excess molar volume [m3/mol]
[1], x2 = 0.1025	0.107	–
[1], x2 = 0.2064	0.193	–
[1], x2 = 0.3097	0.268	–
[1], x2 = 0.4012	0.318	–
[1], x2 = 0.4828	0.345	–
[1], x2 = 0.5438	0.354	–
[1], x2 = 0.5906	0.353	–
[1], x2 = 0.6218	0.348	–
[1], x2 = 0.6489	0.34	–
[1], x2 = 0.6819	0.322	–
[1], x2 = 0.7208	0.3	–
[1], x2 = 0.7615	0.276	–
[1], x2 = 0.8015	0.244	–
[1], x2 = 0.8436	0.205	–
[1], x2 = 0.8861	0.163	–
[1], x2 = 0.9283	0.11	–
[1], x2 = 0.9659	0.0516	–
[2], x2 = 0.0801	–	2.62e-07
[2], x2 = 0.1272	–	4.01e-07
[2], x2 = 0.2396	–	6.78e-07
[2], x2 = 0.3349	–	8.74e-07
[2], x2 = 0.4168	–	9.74e-07
[2], x2 = 0.4924	–	1.046e-06
[2], x2 = 0.5597	–	1.06e-06
[2], x2 = 0.6205	–	1.048e-06
[2], x2 = 0.6702	–	1.016e-06
[2], x2 = 0.7236	–	9.42e-07
[2], x2 = 0.7691	–	8.65e-07
[2], x2 = 0.81	–	7.81e-07
[2], x2 = 0.8486	–	6.76e-07
[2], x2 = 0.8816	–	5.66e-07
[2], x2 = 0.9135	–	4.36e-07
[2], x2 = 0.9437	–	3.04e-07
[2], x2 = 0.972	–	1.85e-07

CCCCCCCCCCCCCCCCC [heptadecane] + CCOC(=O)CC
Conditions	excess molar enthalpy [kcal/mol]	excess molar volume [m3/mol]
[1], x2 = 0.1049	0.125	–
[1], x2 = 0.213	0.232	–
[1], x2 = 0.3031	0.311	–
[1], x2 = 0.3846	0.366	–
[1], x2 = 0.4607	0.402	–
[1], x2 = 0.5315	0.42	–
[1], x2 = 0.5885	0.421	–
[1], x2 = 0.6272	0.413	–
[1], x2 = 0.6888	0.386	–
[1], x2 = 0.7229	0.364	–
[1], x2 = 0.7635	0.334	–
[1], x2 = 0.8055	0.296	–
[1], x2 = 0.8479	0.254	–
[1], x2 = 0.8897	0.202	–
[1], x2 = 0.9313	0.138	–
[1], x2 = 0.9727	0.0626	–
[2], x2 = 0.066	–	2.51e-07
[2], x2 = 0.1449	–	5.19e-07
[2], x2 = 0.2675	–	8.82e-07
[2], x2 = 0.3677	–	1.105e-06
[2], x2 = 0.4535	–	1.215e-06
[2], x2 = 0.5272	–	1.268e-06
[2], x2 = 0.5954	–	1.278e-06
[2], x2 = 0.6524	–	1.237e-06
[2], x2 = 0.7503	–	1.094e-06
[2], x2 = 0.7915	–	9.93e-07
[2], x2 = 0.8304	–	8.71e-07
[2], x2 = 0.8626	–	7.59e-07
[2], x2 = 0.8973	–	6.31e-07
[2], x2 = 0.9257	–	4.92e-07
[2], x2 = 0.9523	–	3.54e-07
[2], x2 = 0.9771	–	1.83e-07
